What all share (format): cell-based
The test system of assay [1] is Acinetobacter baumannii (4 strains). The assay is described as follows: MIC, broth microdilution, normal MH medium. As to conditions: Acinetobacter baumannii, read-out: Antibacterial activity MIC, Acinetobacter baumarmii (4 strains). As for the experimental part:
(§1) Supplier of the strains: all of the above strains were provided by Sichuan Primed Shines Bio-tech Co., Ltd. A single colony was isolated by streaking on agar plates for each strain prior to the experiment, and the cells freshly cultured at 37° C. overnight were appropriately diluted for the experiment.
(§2) Medium: MH liquid medium (OXOID).
(§3) Culture condition: cells were incubated at 35-37° C. for 16-18 h.
(§4) The broth microdilution method recommended by Clinical and Laboratory Standards Institute (CLSI), Performance Standards for Antimicrobial Susceptibility Testing; Twenty-Third Informational Supplement, M02-All, M07-A9 and M11-A8, 2013 was used to determine the MIC value of each test sample against each test strain in the normal MH medium and iron-deficient MH medium.
(§5) After diluting each sample to different concentrations with normal MH medium, 100 μl of each test sample solution at different concentrations was separately aspirated onto a 96-well sterile polystyrene plate. Drug solutions were added to the 1st to 10th well with the final concentrations of 16, 8, 4, 2, 1, 0.5, 0.25, 0.125, 0.06, and 0.03 mg/L in each well, respectively. The 11th well, as a blank control, was not added with drugs and bacteria. The 12th well, as a bacterial growth control, was added with bacteria but no drug.
(§6) The test bacterial liquid was adjusted to a bacterial suspension of 0.5 Mcfarland standard with physiological saline, and diluted with MH broth at 1:100, and then added to the drug solution so that a final concentration of the bacterial liquid was approximately 10^4 CFU/ml; 100 μl of the bacterial liquid was further added to each of the above wells (the total volume in each well is 200 μl), which was sealed and placed in a 35-37° C. incubator for 18-20 h for testing the result. The OD600 value was measured by a microplate reader, Minimal Inhibitory Concentration (MIC) of a drug is the lowest concentration of the drug which prevents growth of bacteria in the wells. 1.2.2 MIC in iron-deficient MH medium
A general note: In broth dilution the organism is exposed to a series of concentrations in liquid medium.

For assay [2], the system named is Pseudomonas aeruginosa (4 strains). Put plainly: MIC, broth microdilution, normal MH medium. As to conditions: Pseudomonas aeruginosa, multidrug-resistant clinical isolates (integrator I, IMP4), read-out: Antibacterial activity MIC, Pseudomonas aeruginosa (4 strains). As for the experimental part:
as §1, §2, §3, §4, §5, §6

Assay [3] concerns Escherichia coli (4 strains). The assay is described as follows: MIC, broth microdilution, normal MH medium. As to conditions: for MIC: Escherichia coli, clinical isolates (ESBLs), read-out: Antibacterial activity MIC, Escherichia coli (4 strains); for times more effective than BAL30072 in inhibitory activity against Escherichia coli: from MIC of Table 2. How it is done:
as §1, §2, §3, §4, §5, §6

Assay [4] deals with Escherichia coli ATCC 35218. The assay is described as follows: MIC, broth microdilution, iron-deficient MH medium. As to conditions: Escherichia coli, ATCC35218; iron-deficient MH medium (16 mg/L 2,2'-bipyridine); quality control strain; read-out: Antibacterial activity MIC, Escherichia coli ATCC 35218. As for the experimental part: (§7) Strain for quality control: Escherichia coli ATCC35218, purchased from National Center of Clinical Laboratory.
as §2, §3, §4
(§8) BPL was added to the normal MH medium to obtain a final concentration of 16 mg/L; According to the method in Section 1.2.1, 100 μl of each test sample solution at different concentrations was aspirated to the 1st to 10th well in a 96-well sterile polystyrene plate to obtain the final drug concentrations of 16, 8, 4, 2, 1, 0.5, 0.25, 0.125, 0.06, and 0.03 mg/L, respectively. Then, 100 μl of the test bacterial liquid was added to each well (200 μl per well), and the final concentration of the bacterial liquid was approximately 10^4 CFU/ml. After sealing, it was placed in a 35-37° C. incubator for 18-20 hours for testing the result. The OD600 value was measured by a microplate reader, Minimal Inhibitory Concentration (MIC) of a drug is the lowest concentration of the drug which prevents growth of bacteria in the wells.

For assay [5], the system named is Klebsiella pneumoniae (4 strains). Put plainly: MIC, broth microdilution, normal MH medium. As to conditions: for MIC: Klebsiella pneumoniae, multi-drug resistant clinical isolates (KPC2), read-out: Antibacterial activity MIC, Klebsiella pneumoniae (4 strains); for times more effective than BAL30072 in inhibitory activity against Klebsiella pneumoniae: from MIC of Table 2. How it is done: as §1, §2, §3, §4, §5
The OD600 value was measured by a microplate reader, Minimal Inhibitory Concentration (MIC) of a drug is the lowest concentration of the drug which prevents growth of bacteria in the wells. 1.2.2 MIC in iron-deficient MH medium

Assay [6] concerns Escherichia coli ATCC 35218. Put plainly: MIC, broth microdilution, normal MH medium. As to conditions: Escherichia coli, ATCC35218, quality control strain, read-out: Antibacterial activity MIC, Escherichia coli ATCC 35218. As for the experimental part:
as §7, §2, §3, §4, §5, §6

Assay [7] concerns Acinetobacter baumannii (4 strains). The assay is described as follows: MIC, broth microdilution, iron-deficient MH medium. As to conditions: Acinetobacter baumannii; iron-deficient MH medium (16 mg/L 2,2'-bipyridine); multidrug-resistant clinical isolates (integron I, OXA23); read-out: Antibacterial activity MIC, Acinetobacter baumannii (4 strains). As for the experimental part: as §1, §2, §3, §4, §8

Assay [8] relates to Klebsiella pneumoniae (4 strains). Put plainly: MIC, broth microdilution, iron-deficient MH medium. As to conditions: for MIC: Klebsiella pneumoniae, iron-deficient MH medium (16 mg/L 2,2'-bipyridine), multi-drug resistant clinical isolates (KPC2), read-out: Antibacterial activity MIC, Klebsiella pneumoniae (4 strains); for times more effective than BAL30072 in inhibitory activity against Klebsiella pneumonia: iron-deficient MH medium, from MIC of Table 3. As for the experimental part:
as §1, §2, §3, §4, §8

The test system of assay [9] is Pseudomonas aeruginosa (4 strains). Put plainly: MIC, broth microdilution, iron-deficient MH medium. The following applies: Pseudomonas aeruginosa; iron-deficient MH medium (16 mg/L 2,2'-bipyridine); multidrug-resistant clinical isolates (integrator I, IMP4); read-out: Antibacterial activity MIC, Pseudomonas aeruginosa (4 strains). As for the experimental part:
as §1, §2, §3, §4, §8

The test system of assay [10] is Escherichia coli (4 strains). The assay is described as follows: MIC, broth microdilution, iron-deficient MH medium. As to conditions: Escherichia coli; iron-deficient MH medium (16 mg/L 2,2'-bipyridine); clinical isolates (ESBLs); read-out: Antibacterial activity MIC, Escherichia coli (4 strains). How it is done:
as §1, §2, §3, §4, §8

Structures can show the parent of a compound that is named as a salt.

The term MIC denotes the least concentration at which growth counts as inhibited. `CSCC(O/N=C(\C(=O)N[C@@H]1C(=O)N(OS(=O)(=O)O)C1(C)C)c1csc(N)n1)c1cc(=O)c(O)cn1O` (stereo partly drawn) [Compound 16, (3S)-3-((Z)-2-(2-aminothiazol-4-yl)-2-((1-(1,5-dihydroxy-4-oxo-1,4-dihydropyridin-2-yl)-2-(methylthio)ethoxy)imine)acetamido)-2,2-dimethyl-4-oxoazetidine-1-hydrogen sulfate]: the MIC was 1 to 2 µg/mL in [1]; 0.25 to 2 µg/mL in assay [2]; 0.125 to 0.5 µg/mL in [3]; less than 0.03 µg/mL in assay [4]; 0.5 to 1 µg/mL in [5]; less than 0.03 µg/mL in assay [6]. For the same compound, the MIC in [7] was 0.5 to 1 µg/mL; in assay [8], 0.5 to 1 µg/mL; in [9], 0.125 to 1 µg/mL; in assay [10] it was 0.06 to 0.25 µg/mL. The “times more effective than BAL30072 in inhibitory activity against Escherichia coli” value in assay [3] was 2-8 times. Moreover, the “times more effective than BAL30072 in inhibitory activity against Klebsiella pneumoniae” value in assay [5] is recorded as 64-128 times. Also, the “times more effective than BAL30072 in inhibitory activity against Klebsiella pneumonia” value in [8] is given as 64-128 times.
For `CC(O/N=C(\C(=O)N[C@@H]1C(=O)N(OS(=O)(=O)O)C1(C)C)c1nc(N)sc1Cl)c1cc(=O)c(O)cn1O` (stereo partly drawn) [Compound 22, (3S)-3-((Z)-2-(2-amino-5-chlorothiazol-4-yl)-2-((1-(1,5-dihydroxy-4-oxo-1,4-dihydropyridin-2-yl)ethoxyl)imine)acetamido)-2,2-dimethyl-4-oxoazetidine-1-hydrogen sulfate], the minimal inhibitory concentration (MIC) in assay [1] is 2 µg/mL; in [2] it was 0.5 to 2 µg/mL; in assay [3] it was 0.06 to 0.5 µg/mL; in [4], less than 0.03 µg/mL; in assay [5], 1 µg/mL; in [6], less than 0.03 µg/mL. Moreover, the MIC in assay [7] is 1 µg/mL; in assay [8], 1 µg/mL; in assay [9], 0.5 to 1 µg/mL; in assay [10], 0.06 to 0.25 µg/mL. The “times more effective than BAL30072 in inhibitory activity against Escherichia coli” value in [3] is listed as 4-16 times. Also, the “times more effective than BAL30072 in inhibitory activity against Klebsiella pneumoniae” value in assay [5] was 64 times. The “times more effective than BAL30072 in inhibitory activity against Klebsiella pneumonia” value in assay [8] was 64 times.
Consider `CC(C)C(O/N=C(\C(=O)N[C@@H]1C(=O)N(OS(=O)(=O)O)C1(C)C)c1nc(N)sc1Cl)c1cc(=O)c(O)cn1O` (stereo partly drawn) [Compound 24, (3S)-3-((Z)-2-(2-amino-5-chlorothiazol-4-yl)-2-((1-(1,5-dihydroxy-4-oxo-1,4-dihydropyridin-2-yl)-2-methylpropoxy)imine)acetamido)-2,2-dimethyl-4-oxoazetidine-1-hydrogen sulfate], for which the minimum inhibitory concentration (MIC) in assay [4] was less than 0.03 µg/mL; in [7], 1 to 2 µg/mL; in [8], 0.125 to 0.5 µg/mL; in assay [9], 0.25 to 2 µg/mL; in assay [10] it was 0.06 to 0.25 µg/mL. In assay [8], the “times more effective than BAL30072 in inhibitory activity against Klebsiella pneumonia” value is reported as 128-512 times.
For `C[C@H](O/N=C(\C(=O)N[C@@H]1C(=O)N(OS(=O)(=O)O)C1(C)C)c1nc(N)sc1Cl)c1cc(=O)c(O)cn1O` [Compound 26, (S)-3-((Z)-2-(2-amino-5-chlorothiazol-4-yl)-2-(((S)-1-(1,5-dihydroxy-4-oxo-1,4-dihydropyridin-2-yl)ethoxy)imine)acetamido)-2,2-dimethyl-4-oxoazetidine-1-hydrogen sulfate], the MIC in [1] is 1 µg/mL; in [2] it was 0.5 to 1 µg/mL; in assay [3] it was 0.25 to 1 µg/mL; in assay [4], less than 0.03 µg/mL; in assay [5], 1 to 4 µg/mL; in assay [6], less than 0.03 µg/mL. Further, the MIC lay in the range of 0.5 to 1 µg/mL in assay [7], 0.5 to 4 µg/mL in assay [8], 0.25 to 1 µg/mL in assay [9] and 0.03 to 0.25 µg/mL in assay [10]. In [8], the “times more effective than BAL30072 in inhibitory activity against Klebsiella pneumonia” value is 16-128 times.
In the case of `CC(C)[C@H](O/N=C(\C(=O)N[C@@H]1C(=O)N(OS(=O)(=O)O)C1(C)C)c1csc(N)n1)c1cc(=O)c(O)cn1O` [Compound 28, (3S)-3-((Z)-2-(2-aminothiazol-4-yl)-2-(((S)-1-(1,5-dihydroxy-4-oxo-1,4-Dihydropyridin-2-yl)-2-methylisopropyloxy)imine)acetamido)-2,2-dimethyl-4-oxoazetidine-1-hydrogen sulfate], the MIC is less than 0.03 µg/mL in assay [4]; 1 to 2 µg/mL in assay [7]; 1 µg/mL in assay [8]; 0.125 to 1 µg/mL in assay [9]; 0.125 to 0.25 µg/mL in assay [10]. In addition, in assay [8], the “times more effective than BAL30072 in inhibitory activity against Klebsiella pneumonia” value was found to be 64 times.
As for `CC(C)[C@H](O/N=C(\C(=O)N[C@@H]1C(=O)N(OS(=O)(=O)O)C1(C)C)c1nc(N)sc1Cl)c1cc(=O)c(O)cn1O` [Compound 29, (3S)-3-((Z)-2-(2-amino-5-chlorothiazol-4-yl)-2-(((S)-1-(1,5-dihydroxy-4-oxo-1,4-dihydropyridin-2-yl)-2-methylpropoxy)imine)acetamido)-2,2-dimethyl-4-oxoazetidine-1-hydrogen sulfate], the MIC in [1] is 1 to 2 µg/mL; in assay [2] it was 0.25 to 2 µg/mL; in assay [3] it was 1 to 2 µg/mL; in assay [4] it was less than 0.03 µg/mL; in assay [5], 1 to 4 µg/mL; in [6], less than 0.03 µg/mL. Also, the MIC in assay [7] was 0.5 to 1 µg/mL; in [8] it was 0.25 to 0.5 µg/mL; in assay [9] it was 0.06 to 1 µg/mL; in assay [10] it was 0.125 to 1 µg/mL. Moreover, the “times more effective than BAL30072 in inhibitory activity against Klebsiella pneumonia” value in [8] was 128-256 times.
As for `CO/N=C(\C(=O)N[C@@H]1C(=O)N2C(C(=O)O)=CCS[C@H]12)c1csc(N)n1` [ceftizoxime sodium, reference compound], the minimal inhibitory concentration (MIC) is 32 to 64 µg/mL in assay [1]; more than 64 µg/mL in [2]; 0.5 to 2 µg/mL in assay [3]; 32 to 64 µg/mL in [5]; 0.25 µg/mL in assay [6].

These data come from US10501454B2, “Monocyclic β-lactam-siderophore conjugate, and preparation method and use thereof” (Shanghai Institute of Materia Medica, Chinese Academy of …, priority 2016, dated 2019).
